Experimental data from PubChem BioAssay (NCI).
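48-hour exposure; five concentrations; linearly interpolated endpoints. GI50: concentration for 50% inhibition of growth. TGI is the concentration that stops growth completely.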

Tests used:
Experiment in all cases: DTP human tumour cell line panel, 48 h
[1] = test system: RPMI-8226 leukemia
[2] = test system: HCT-15 colon
[3] = test system: SK-OV-3 ovarian
[4] = test system: SF-268 CNS
[5] = test system: A549 NSCLC
[6] = test system: MDA-MB-435
[7] = test system: SN12C renal
[8] = test system: CCRF-CEM leukemia
[9] = test system: SW-620 colon
[10] = test system: KM12 colon
[11] = test system: T-47D breast
[12] = test system: CAKI-1 renal
[13] = test system: ACHN renal
[14] = test system: A498 renal
[15] = test system: HOP-62 NSCLC
[16] = test system: SK-MEL-28 melanoma
[17] = test system: RXF 393 renal
[18] = test system: OVCAR-5 ovarian
[19] = test system: M14 melanoma
[20] = test system: IGROV1 ovarian
[21] = test system: SK-MEL-5 melanoma
[22] = test system: UACC-257 melanoma
[23] = test system: SR leukemia
[24] = test system: NCI-H23 lung
[25] = test system: NCI-H226 lung
[26] = test system: K-562 leukemia
[27] = test system: NCI-H460 lung
[28] = test system: SNB-19 CNS
[29] = test system: COLO 205 colon
[30] = test system: SF-295 CNS
[31] = test system: LOX IMVI melanoma
[32] = test system: HS 578T breast
[33] = test system: SK-MEL-2 melanoma
[34] = test system: BT-549 breast
[35] = test system: SNB-75 CNS
[36] = test system: SF-539 CNS
[37] = test system: U251 CNS
[38] = test system: OVCAR-3 ovarian
[39] = test system: HL-60(TB) leukemia
[40] = test system: EKVX NSCLC
[41] = test system: HOP-92 NSCLC
[42] = test system: UACC-62 melanoma
[43] = test system: OVCAR-8 ovarian
[44] = test system: NCI-H522 lung
[45] = test system: OVCAR-4 ovarian
[46] = test system: HCC-2998 colon
[47] = test system: UO-31 renal
[48] = test system: HT29 colon
[49] = test system: MALME-3M melanoma
[50] = test system: MDA-MB-468 breast
[51] = test system: MDA-MB-231 breast
[52] = test system: HCT-116 colon
[53] = test system: PC-3 prostate
[54] = test system: DU-145 prostate
[55] = test system: TK-10 renal
[56] = test system: MCF7 breast
[57] = test system: MOLT-4 leukemia
[58] = test system: 786-0 renal

O=C(Nc1ccc(F)c(Cl)c1)c1cc(-c2ccc(F)cc2F)ccc1O
GI50 [1]: 1.67 µM
TGI [1]: 9.57 µM
GI50 [2]: 2.31 µM
TGI [2]: 10.2 µM
GI50 [3]: 2.06 µM
TGI [3]: 6.07 µM
GI50 [4]: 2.23 µM
TGI [4]: 9.68 µM
GI50 [5]: 2.95 µM
TGI [5]: 15.1 µM
GI50 [6]: 2.17 µM
TGI [6]: 7.05 µM
GI50 [7]: 2.18 µM
TGI [7]: 8.26 µM
GI50 [8]: 3.34 µM
TGI [8]: > 100 µM
GI50 [9]: 3.05 µM
TGI [9]: 11.9 µM
GI50 [10]: 2.57 µM
TGI [10]: 6.83 µM
GI50 [11]: 1.86 µM
TGI [11]: 6.61 µM
GI50 [12]: 1.5 µM
TGI [12]: 4.97 µM
GI50 [13]: 2.42 µM
TGI [13]: 10.3 µM
GI50 [14]: 2.27 µM
TGI [14]: 6.31 µM
GI50 [15]: 2.24 µM
TGI [15]: 5.38 µM
GI50 [16]: 2.2 µM
TGI [16]: 9.94 µM
GI50 [17]: 1.65 µM
TGI [17]: 5.45 µM
GI50 [18]: 3.39 µM
TGI [18]: 38.9 µM
GI50 [19]: 2.3 µM
TGI [19]: 6.88 µM
GI50 [20]: 3.25 µM
TGI [20]: 27 µM
GI50 [21]: 0.832 µM
TGI [21]: 2.21 µM
GI50 [22]: 1.67 µM
TGI [22]: 6.15 µM
GI50 [23]: 2.39 µM
TGI [23]: 9.53 µM
GI50 [24]: 1.69 µM
TGI [24]: 4.8 µM
GI50 [25]: 2.1 µM
TGI [25]: 7 µM
GI50 [26]: 2.01 µM
TGI [26]: 11.9 µM
GI50 [27]: 2.19 µM
TGI [27]: 8.82 µM
GI50 [28]: 2.95 µM
TGI [28]: 19.1 µM
GI50 [29]: 5.11 µM
TGI [29]: 17.6 µM
GI50 [30]: 2.42 µM
TGI [30]: 6.2 µM
GI50 [31]: 2.89 µM
TGI [31]: 8.25 µM
GI50 [32]: 1.93 µM
TGI [32]: 6.55 µM
GI50 [33]: 1.4 µM
TGI [33]: 3.71 µM
GI50 [34]: 1.59 µM
TGI [34]: 4.05 µM
GI50 [35]: 1.05 µM
TGI [35]: 4.68 µM
GI50 [36]: 2.58 µM
TGI [36]: 10.6 µM
GI50 [37]: 3.01 µM
TGI [37]: 12.5 µM
GI50 [38]: 2.98 µM
TGI [38]: 12.9 µM
GI50 [39]: 1.78 µM
TGI [39]: 4.44 µM
GI50 [40]: 2.71 µM
TGI [40]: 12.7 µM
GI50 [41]: 1.56 µM
TGI [41]: 5.45 µM
GI50 [42]: 1.29 µM
TGI [42]: 3.72 µM
GI50 [43]: 3.1 µM
TGI [43]: 13.3 µM
GI50 [44]: 1.74 µM
TGI [44]: 7.65 µM
GI50 [45]: 2.49 µM
TGI [45]: 15.2 µM
GI50 [46]: 3.28 µM
TGI [46]: 11.6 µM
GI50 [47]: 2.49 µM
TGI [47]: 12.3 µM
GI50 [48]: 4.79 µM
TGI [48]: 26.8 µM
GI50 [49]: 1.91 µM
TGI [49]: 5.3 µM
GI50 [50]: 2.1 µM
TGI [50]: 5.51 µM
GI50 [51]: 1.96 µM
TGI [51]: 4.62 µM
GI50 [52]: 2.04 µM
TGI [52]: 5.62 µM
GI50 [53]: 3.08 µM
TGI [53]: 13.4 µM
GI50 [54]: 3.01 µM
TGI [54]: > 100 µM
GI50 [55]: 3.57 µM
TGI [55]: 13.5 µM
GI50 [56]: 2.48 µM
TGI [56]: 13.9 µM
GI50 [57]: 1.77 µM
TGI [57]: 5.47 µM
GI50 [58]: 2.75 µM
TGI [58]: 9.2 µM
